Laboratory results reported in ChEMBL document CHEMBL6120965, “Structure-Activity Relationship Studies Leading to the Discovery of Highly Water-Soluble and Biocompatible Acyclic Cucurbit[n]uril FY-3451 as a Universal Antagonist That Rapidly Reverses Neuromuscular Blocking Agents In Vivo” (J Med Chem, 2024).

Assays:
[1] = tested on: Rattus norvegicus; experiment: Recovery of Roc-induced neuromuscular block in Sprague-Dawley rat assessed as […] ratio (TOFr) >= 90% by measuring recovery time at 25 mg/kg, iv (reference value: 597 seconds); format: functional
[2] = tested on: Rattus norvegicus; experiment: Recovery of CisA-induced neuromuscular block in Sprague-Dawley rat assessed as […] ratio (TOFr) >= 90% by measuring recovery time at 80 mg/kg, iv (reference value: 784 seconds); format: functional
[3] = Toxicity in iv dosed Sprague-Dawley rat assessed as maximum tolerated dose measured upto 14 days; format: organism-based; settings: in vivo, 336 h, time < 14 day
[4] = Water solubility of the compound measured at 25 degreeC; format: physicochemical
[5] = tested on: Rocuronium; experiment: Binding affinity to Rocuronium by Competition UV-Vis titration method

| solubility [4] | Ka [5] | Structure (SMILES) | Time [1] | Time [2] | MTD [3] |
| --- | --- | --- | --- | --- | --- |
| 520 mg/mL | – | O=C1N2Cc3c(OCCCS(=O)(=O)[O-])ccc(OCCCS(=O)(=O)[O-])c3CN3C(=O)N4CN5C(=O)N6CN7C(=O)N8CN9C(=O)N%10Cc%11c(OCCCS(=O)(=O)[O-])ccc(OCCCS(=O)(=O)[O-])c%11CN%11C(=O)N(CN%12C(=O)N(CN%13C(=O)N(CN1C41CCCCC231)[C@H]5[C@H]6%13)[C@H]7[C@H]8%12)C91CCCCC%10%111.[Na+].[Na+].[Na+].[Na+] (stereo partly specified) | 203 s | – | – |
| 600 mg/mL | – | Cc1cc(OCCCS(=O)(=O)[O-])c2c(c1OCCCS(=O)(=O)[O-])CN1C(=O)N3CN4C(=O)N5CN6C(=O)N7CN8C(=O)N9Cc%10c(c(OCCCS(=O)(=O)[O-])cc(C)c%10OCCCS(=O)(=O)[O-])CN%10C(=O)N(CN%11C(=O)N(CN%12C(=O)N(CN%13C(=O)N(C2)C1(C)C%133C)C4C%125)C6C%117)C8(C)C%109C.[Na+].[Na+].[Na+].[Na+] (mixture of isomers) | 151 s | – | – |
| – | 1.05 10^7/M | O=C(O)CCSC[C@H]1O[C@@H]2O[C@H]3[C@H](O)[C@@H](O)[C@@H](O[C@H]4[C@H](O)[C@@H](O)[C@@H](O[C@H]5[C@H](O)[C@@H](O)[C@@H](O[C@H]6[C@H](O)[C@@H](O)[C@@H](O[C@H]7[C@H](O)[C@@H](O)[C@@H](O[C@H]8[C@H](O)[C@@H](O)[C@@H](O[C@H]9[C@H](O)C(O)[C@@H](O[C@H]1[C@H](O)[C@H]2O)O[C@@H]9CSCCC(=O)O)O[C@@H]8CSCCC(=O)O)O[C@@H]7CSCCC(=O)O)O[C@@H]6CSCCC(=O)O)O[C@@H]5CSCCC(=O)O)O[C@@H]4CSCCC(=O)O)O[C@@H]3CSCCC(=O)O (stereo partly specified) | – | – | – |
| – | – | C[C@]12N3Cc4c(c(OCC(=O)[O-])c5ccccc5c4OCC(=O)[O-])CN1C(=O)N1CN4C(=O)N5CN6C(=O)N7CN8C(=O)N9Cc%10c(c(OCC(=O)[O-])c%11ccccc%11c%10OCC(=O)[O-])CN%10C(=O)N(CN%11C(=O)N(CN%12C(=O)N(CN(C3=O)[C@]12C)[C@@H]4[C@H]%125)[C@@H]6[C@H]%117)[C@]8(C)[C@@]9%10C.[Na+].[Na+].[Na+].[Na+] | 108 s | – | – |
| 940 mg/mL | – | CC[C@]12N3Cc4c(c(OCCCS(=O)(=O)[O-])c(C)c(C)c4OCCCS(=O)(=O)[O-])CN1C(=O)N1CN4C(=O)N5CN6C(=O)N7CN8C(=O)N9Cc%10c(c(OCCCS(=O)(=O)[O-])c(C)c(C)c%10OCCCS(=O)(=O)[O-])CN%10C(=O)N(CN%11C(=O)N(CN%12C(=O)N(CN(C3=O)[C@]12CC)[C@@H]4[C@H]%125)[C@@H]6[C@H]%117)[C@]8(CC)[C@@]9%10CC.[Na+].[Na+].[Na+].[Na+] | 31 s | 130 s | – |
| 870 mg/mL | – | COc1cc(OCCCS(=O)(=O)[O-])c2c(c1OCCCS(=O)(=O)[O-])CN1C(=O)N3CN4C(=O)N5CN6C(=O)N7CN8C(=O)N9Cc%10c(c(OCCCS(=O)(=O)[O-])cc(OC)c%10OCCCS(=O)(=O)[O-])CN%10C(=O)N(CN%11C(=O)N(CN%12C(=O)N(CN%13C(=O)N(C2)C1(C)C%133C)C4C%125)C6C%117)C8(C)C%109C.[Na+].[Na+].[Na+].[Na+] (stereo unspecified) | 40 s | – | – |
| – | – | C[C@]12N3Cc4c(c(OCC(C(=O)[O-])C(=O)[O-])c5ccccc5c4OCC(C(=O)[O-])C(=O)[O-])CN1C(=O)N1CN4C(=O)N5CN6C(=O)N7CN8C(=O)N9Cc%10c(c(OCC(C(=O)[O-])C(=O)[O-])c%11ccccc%11c%10OCC(C(=O)[O-])C(=O)[O-])CN%10C(=O)N(CN%11C(=O)N(CN%12C(=O)N(CN(C3=O)[C@]12C)[C@@H]4[C@H]%125)[C@@H]6[C@H]%117)[C@]8(C)[C@@]9%10C.[Na+].[Na+].[Na+].[Na+].[Na+].[Na+].[Na+].[Na+] | 84 s | – | – |
| 750 mg/mL | – | CC[C@]12N3Cc4c(OCCCS(=O)(=O)[O-])ccc(OCCCS(=O)(=O)[O-])c4CN1C(=O)N1CN4C(=O)N5CN6C(=O)N7CN8C(=O)N9Cc%10c(OCCCS(=O)(=O)[O-])ccc(OCCCS(=O)(=O)[O-])c%10CN%10C(=O)N(CN%11C(=O)N(CN%12C(=O)N(CN(C3=O)[C@]12CC)[C@@H]4[C@H]%125)[C@@H]6[C@H]%117)[C@]8(CC)[C@@]9%10CC.[Na+].[Na+].[Na+].[Na+] | 348 s | – | – |
| – | – | CN(C)C(=O)Oc1cccc([N+](C)(C)C)c1 [NEOSTIGMINE] | 409 s | 276 s | – |
| – | – | C[C@]12N3Cc4c(c(OCCC(=O)[O-])c5ccccc5c4OCCC(=O)[O-])CN1C(=O)N1CN4C(=O)N5CN6C(=O)N7CN8C(=O)N9Cc%10c(c(OCCC(=O)[O-])c%11ccccc%11c%10OCCC(=O)[O-])CN%10C(=O)N(CN%11C(=O)N(CN%12C(=O)N(CN(C3=O)[C@]12C)[C@@H]4[C@H]%125)[C@@H]6[C@H]%117)[C@]8(C)[C@@]9%10C.[Na+].[Na+].[Na+].[Na+] | 95 s | – | – |

| Structure (SMILES) | solubility [4] | Ka [5] | Time [1] | Time [2] | MTD [3] |
| --- | --- | --- | --- | --- | --- |
| CC[C@]12N3Cc4c(c(OCCCS(=O)(=O)[O-])c5ccccc5c4OCCCS(=O)(=O)[O-])CN1C(=O)N1CN4C(=O)N5CN6C(=O)N7CN8C(=O)N9Cc%10c(c(OCCCS(=O)(=O)[O-])c%11ccccc%11c%10OCCCS(=O)(=O)[O-])CN%10C(=O)N(CN%11C(=O)N(CN%12C(=O)N(CN(C3=O)[C@]12CC)[C@@H]4[C@H]%125)[C@@H]6[C@H]%117)[C@]8(CC)[C@@]9%10CC.[Na+].[Na+].[Na+].[Na+] | 670 mg/mL | – | 19 s | 57 s | 500 mg/kg |
